Biological target: T1, polyisoprenylated methylated protein methyl esterase (PMPMEase) (Sus scrofa, UniProt Q29550)
T1 construct: purified PMPMEase
T1 sequence (Q29550 19-566): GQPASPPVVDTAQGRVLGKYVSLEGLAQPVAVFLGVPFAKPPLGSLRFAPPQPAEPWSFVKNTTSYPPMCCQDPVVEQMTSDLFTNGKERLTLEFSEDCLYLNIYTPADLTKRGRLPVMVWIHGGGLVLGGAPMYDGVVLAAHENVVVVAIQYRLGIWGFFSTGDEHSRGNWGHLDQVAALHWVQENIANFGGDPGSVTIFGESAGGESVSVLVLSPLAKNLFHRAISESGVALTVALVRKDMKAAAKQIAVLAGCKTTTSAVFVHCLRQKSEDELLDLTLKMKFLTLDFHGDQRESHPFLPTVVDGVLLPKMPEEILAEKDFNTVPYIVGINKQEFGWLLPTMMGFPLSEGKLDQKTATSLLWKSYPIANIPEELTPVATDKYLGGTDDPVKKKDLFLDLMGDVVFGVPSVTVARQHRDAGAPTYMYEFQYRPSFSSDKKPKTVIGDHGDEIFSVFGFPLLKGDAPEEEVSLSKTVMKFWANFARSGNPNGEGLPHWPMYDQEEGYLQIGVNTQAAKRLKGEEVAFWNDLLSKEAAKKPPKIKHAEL
Assay: RP-HPLC assay of RD-PNB hydrolysis by purified enzyme; Michaelis-Menten kinetics; reversibility by gel filtration
Format: biochemical

Ki: 310 nM
SMILES: COc1cc(/C=C/C(=O)CC(=O)/C=C/c2ccc(O)c(OC)c2)ccc1O [curcumin]

Reference: paper PMC3713324, “Polyisoprenylated Methylated Protein Methyl Esterase Is Both Sensitive to Curcumin and Overexpressed in Colorectal Cancer: Implications for Chemoprevention and Treatment” (BioMed Research International, 2013)
